In paper PMC2196313 (The Journal of Experimental Medicine, 1997):

Experiments:
CTL clone E8 [1] = assay type: cell-based, mouse (C57BL/6)
CTL clone 4G3 = assay type: cell-based, mouse
CTL clone B3 = details: cited from earlier work
TCR of CTL clone G9a = assay type: cell-based, mouse (C57BL/6)
CTL clone E8 [2] = assay type: cell-based, mouse (C57BL/6); remark: listed apart in the source

Substance: SIIG FEK ^* L [O7(N4G)]
- inhibition of specific target cell lysis by clone E8 (CTL clone E8 [1]): comparatively poor inhibitors
- inhibition of specific target cell lysis by clone 4G3 (CTL clone 4G3): most sensitive
- antagonism for clone B3 (CTL clone B3): potent antagonist

Substance: SIIR FEK ^* L [O7(N4R)]
- inhibition of specific target cell lysis by clone E8 (CTL clone E8 [1]): no effect within the concentration range tested
- inhibition of agonist-induced loss of surface TCR on clone G9a (TCR of CTL clone G9a): had no effect
- cold target inhibition of lysis by clone E8 (CTL clone E8 [2]): indistinguishable from RMA cells without added peptide
